Measured values published in ChEMBL document CHEMBL1201862, “PubChem BioAssay data set” (2004).
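Results reflect a 48-hour exposure of cells in 96-well plates to compound at five concentrations. GI50: concentration for 50% inhibition of growth.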 Active and inactive are the calls of the source. Rule as the data show it: active = GI50 up to about 1.1 µM and inactive = higher.

Experiments:
Assay in all cases: NCI anticancer screen, dose series, 48 h
LXFL 529 = tested on: LXFL 529
SK-MEL-2 = tested on: SK-MEL-2
NCI-H23 = tested on: NCI-H23
HL-60 = tested on: HL-60
U-251 = tested on: U-251
OVCAR-5 = tested on: OVCAR-5
HT-29 = tested on: HT-29
MOLT-4 = tested on: MOLT-4
K562 = tested on: K562
OVCAR-4 = tested on: OVCAR-4
HCT-116 = tested on: HCT-116
COLO 205 = tested on: COLO 205
HCT-15 = tested on: HCT-15
SN12C = tested on: SN12C
SR = tested on: SR
OVCAR-3 = tested on: OVCAR-3
HOP-92 = tested on: HOP-92

SMILES	GI50 (LXFL 529)	GI50 (SK-MEL-2)	GI50 (NCI-H23)	GI50 (HL-60)	GI50 (U-251)	GI50 (OVCAR-5)	GI50 (HT-29)	GI50 (MOLT-4)	GI50 (K562)	GI50 (OVCAR-4)	GI50 (HCT-116)	GI50 (COLO 205)	GI50 (HCT-15) [µM]	GI50 (SN12C)	GI50 (SR)	GI50 (OVCAR-3)	GI50 (HOP-92)
O=C(NCO)NCOCn1c(=O)n(CO)c(=O)n(CO)c1=O	20 µM (inactive)	17.9 µM (inactive)	19.8 µM (inactive)	22.3 µM (inactive)	> 60.8 µM (inactive)	> 100 µM (inactive)	32.6 µM (inactive)	23.4 µM (inactive)	32.1 µM (inactive)	32.1 µM (inactive)	31.6 µM (inactive)	27.4 µM (inactive)	23.8	> 60.7 µM (inactive)	29.2 µM (inactive)	84.1 µM (inactive)	
NCCSc1cc(O)c2c(c1N)C(=O)c1ccccc1C2=O	38.2 µM (inactive)	65.6 µM (inactive)	> 100 µM (inactive)	20.8 µM (inactive)	58.7 µM (inactive)	> 100 µM (inactive)	34.1 µM (inactive)	20.9 µM (inactive)	22.2 µM (inactive)	99.3 µM (inactive)	34 µM (inactive)		29.3	47.1 µM (inactive)	20.8 µM (inactive)	43 µM (inactive)	60.5 µM (inactive)
BrC12C3C4C5C(C(C43)C13OCCO3)C52 (stereo unspecified)	> 100 µM (inactive)	> 100 µM (inactive)	> 100 µM (inactive)	> 100 µM (inactive)	> 100 µM (inactive)	> 100 µM (inactive)	> 100 µM (inactive)	> 100 µM (inactive)	> 100 µM (inactive)		> 100 µM (inactive)	> 100 µM (inactive)				> 100 µM (inactive)	58.1 µM (inactive)
CC12CC/C(=N/NC(N)=O)C3C1CCCC32	> 100 µM (inactive)	> 100 µM (inactive)	> 100 µM (inactive)	> 100 µM (inactive)	> 100 µM (inactive)		> 100 µM (inactive)	> 100 µM (inactive)	> 100 µM (inactive)	> 100 µM (inactive)	> 100 µM (inactive)	> 100 µM (inactive)	> 100	> 100 µM (inactive)	> 100 µM (inactive)	> 100 µM (inactive)	> 100 µM (inactive)
COC(=O)/C(C#N)=C1\CCC(OC)N1C (stereo unspecified)	> 100 µM (inactive)	> 100 µM (inactive)	> 100 µM (inactive)	> 100 µM (inactive)	> 100 µM (inactive)	> 100 µM (inactive)	> 100 µM (inactive)	> 100 µM (inactive)	> 100 µM (inactive)	> 100 µM (inactive)	> 100 µM (inactive)	> 100 µM (inactive)	> 100	> 100 µM (inactive)		> 100 µM (inactive)	
O=C1C(c2ccccc2)=[N+]([O-])c2ccc(Cl)cc21	13.6 µM (inactive)	> 100 µM (inactive)	31.6 µM (inactive)	10.6 µM (inactive)	25.9 µM (inactive)	35.2 µM (inactive)	22 µM (inactive)	23.6 µM (inactive)	32.5 µM (inactive)		15.8 µM (inactive)	14.1 µM (inactive)	20	24.2 µM (inactive)	34.7 µM (inactive)	23.3 µM (inactive)	0.0256 µM (active)
O=C1CC2=CCCC2O1 (stereo unspecified)	> 100 µM (inactive)	> 100 µM (inactive)	> 100 µM (inactive)	> 100 µM (inactive)	> 100 µM (inactive)		> 100 µM (inactive)	> 100 µM (inactive)	> 100 µM (inactive)	> 100 µM (inactive)	> 100 µM (inactive)	> 100 µM (inactive)	> 100	> 100 µM (inactive)		> 100 µM (inactive)	> 100 µM (inactive)
CC(C)CCC[C@@H](C)C1CCC2[C@@H]3CC=C4C[C@@H](C(=O)NCC[N+](C)(C)CCCS(=O)(=O)[O-])CC[C@]4(C)C3CC[C@@]21C (stereo partly specified)	18.8 µM (inactive)	18.2 µM (inactive)		13.4 µM (inactive)	17.3 µM (inactive)		18 µM (inactive)	18.2 µM (inactive)	14.2 µM (inactive)	20.3 µM (inactive)	16.8 µM (inactive)	17.5 µM (inactive)	16.3	17.9 µM (inactive)		16.4 µM (inactive)	
COc1ccc([C@H]2CC3C(=O)N(c4ccc(OC)cc4)C(=O)C3c3[nH]c4ccccc4c32)cc1 (stereo partly specified)	55.1 µM (inactive)	53 µM (inactive)	54 µM (inactive)		59.6 µM (inactive)	> 100 µM (inactive)		32.9 µM (inactive)	> 100 µM (inactive)	> 100 µM (inactive)	9.31 µM (inactive)	97.5 µM (inactive)	57.4	51.9 µM (inactive)		> 100 µM (inactive)	24 µM (inactive)
CC(C)c1ccccc1NC(=O)CCC(=O)NN	> 100 µM (inactive)	> 100 µM (inactive)	> 100 µM (inactive)	> 100 µM (inactive)	> 100 µM (inactive)			> 100 µM (inactive)	> 100 µM (inactive)		> 100 µM (inactive)		> 100	> 100 µM (inactive)	> 100 µM (inactive)	> 100 µM (inactive)	> 100 µM (inactive)
CC1CC2C3CCC4=CC(=O)C=CC4(C)C3(F)C(O)CC2(C)C1(O)C(=O)CO.Cc1nnc(NS(=O)(=O)c2ccc(/N=N/c3cc(/N=N/c4ccc(S(=O)(=O)Nc5nnc(C)s5)cc4)c4c(NC(=O)C(Cl)Cl)cccc4c3OC(=O)C(Cl)Cl)cc2)s1	31.9 µM (inactive)	21.2 µM (inactive)	12.1 µM (inactive)	9.95 µM (inactive)	37.1 µM (inactive)	27.9 µM (inactive)	8.85 µM (inactive)	5.53 µM (inactive)	22.9 µM (inactive)	22.6 µM (inactive)	15 µM (inactive)	12.1 µM (inactive)	35.5	3.3 µM (inactive)		19.2 µM (inactive)	51.6 µM (inactive)
Cc1ccc2nc(NC(=O)C(=O)C(C#N)c3nc4ccccc4s3)sc2c1 (stereo unspecified)	28.4 µM (inactive)	32.4 µM (inactive)	35 µM (inactive)		33.7 µM (inactive)	57.5 µM (inactive)	26.8 µM (inactive)	20.4 µM (inactive)	29.2 µM (inactive)	39 µM (inactive)	38.4 µM (inactive)	18 µM (inactive)	32	54 µM (inactive)		23.4 µM (inactive)	26.4 µM (inactive)
CN(C)CC1CC/C(=C\c2ccc(Cl)cc2)C1=O (stereo unspecified)	1.99 µM (inactive)	12 µM (inactive)	8.13 µM (inactive)	0.757 µM (active)	7 µM (inactive)	18.2 µM (inactive)	5.71 µM (inactive)	0.561 µM (active)	0.908 µM (active)	15.1 µM (inactive)	3.31 µM (inactive)	4.19 µM (inactive)	3.18	7.67 µM (inactive)		7.35 µM (inactive)	7.73 µM (inactive)
CSc1sc(=S)sc1C(=O)N(C)c1ccccc1	> 100 µM (inactive)	> 100 µM (inactive)	> 100 µM (inactive)	35.6 µM (inactive)	> 100 µM (inactive)	> 100 µM (inactive)	> 100 µM (inactive)	84.5 µM (inactive)	> 100 µM (inactive)	> 100 µM (inactive)	> 100 µM (inactive)	> 100 µM (inactive)	> 100	> 100 µM (inactive)	83 µM (inactive)	91.8 µM (inactive)	
CCN(CC)C(=O)CCn1ccc(=O)[nH]c1=O	> 100 µM (inactive)	> 100 µM (inactive)	> 100 µM (inactive)	> 100 µM (inactive)	> 100 µM (inactive)	> 100 µM (inactive)	> 100 µM (inactive)	> 100 µM (inactive)	> 100 µM (inactive)	> 100 µM (inactive)	> 100 µM (inactive)	> 100 µM (inactive)	> 100	> 100 µM (inactive)	> 100 µM (inactive)	> 100 µM (inactive)	
CSC(=O)C[C@@]12O[C@@H]([C@@H](C)C3CCC4[C@@H]5C(O)CC6=CC(=O)C=C[C@]6(C)C5CC[C@@]43C)C[C@](C)(O1)C(C)(C)O2 (stereo partly specified)	13.2 µM (inactive)	22.9 µM (inactive)	> 10 µM (inactive)	7.85 µM (inactive)	12.5 µM (inactive)	17.7 µM (inactive)	14.5 µM (inactive)		4.3 µM (inactive)	13.5 µM (inactive)	12.8 µM (inactive)		17.3	16.6 µM (inactive)	9.95 µM (inactive)	15.1 µM (inactive)	9.86 µM (inactive)
CC(=O)O[C@@H]1CC(C)C2CC2C2=C(C(O)OC2O)[C@@H]1C(C)CCC=C(C)C (stereo partly specified)	27.6 µM (inactive)	29.9 µM (inactive)	22.2 µM (inactive)	20.4 µM (inactive)	19.4 µM (inactive)	18.3 µM (inactive)	19 µM (inactive)	24.6 µM (inactive)	23.9 µM (inactive)	24.4 µM (inactive)	18.4 µM (inactive)	18.2 µM (inactive)	22	18.4 µM (inactive)			12.8 µM (inactive)
COC(=O)C1=Cc2cc(OC)c(OC)c(OC)c2[C@H](c2cc(OC)c(OC)c(OC)c2)C1C(=O)OC (stereo partly specified)	> 100 µM (inactive)		> 100 µM (inactive)	> 100 µM (inactive)	> 100 µM (inactive)	> 100 µM (inactive)	> 100 µM (inactive)	> 100 µM (inactive)	> 100 µM (inactive)	> 100 µM (inactive)	> 100 µM (inactive)	> 100 µM (inactive)	> 100	> 100 µM (inactive)		> 100 µM (inactive)	1.73 µM (inactive)
